Data reported in patent US20130252950A1, “TARGETING MTOR SUBSTRATES IN TREATING PROLIFERATIVE DISEASES” (President and Fellows of Harvard College, priority 2010, published 2013).
Values joined by “and” are separate entries in the source; they are usually repeats but may differ in a detail not shown here. Equal entries are not always repeated.

System: TSC2−/− MEFs
Assay: Rapamycin screen: SILAC quantitative phosphoproteomics (two biological replicates)
Format: cell-based, mouse
Method: Two sets of large-scale, quantitative phospho-proteomics experiments were performed to fully define how mTOR-containing complexes signal to downstream effectors (FIG. 1A). The first SILAC experiment (rapamycin screen) was performed using growth factor-deprived TSC2−/− mouse embryonic fibroblasts (MEFs).
Two populations of TSC2−/− cells were grown in parallel, one in conventional media (“light”) and the other in media containing [^13C6^15N2]lysine and [^13C6^15N4]arginine (“heavy”) (FIG. 1A and Table 5). […] We performed two biological replicates of this experimental design with cross-labeling (swapping the labeled state of the rapamycin-treated cells, Table 5), from which a total of 14,635 (FDR=0.25%) and 32,500 (FDR=0.28%) phosphopeptides were identified, respectively. These corresponded to identification of at least 4,484 and 6,832 unique phosphorylation sites on 1,615 and 1,866 proteins, respectively. The quantitation was highly accurate (Table 5) with 93.7% of the phosphoproteome changing less than 50% in abundance between the rapamycin-treated (light) and control (heavy) cells (second biological replicate experiment, Median Log2(H/L)=−0.02 and standard deviation Log2(H/L)=0.53, FIG. 1A). […] Note that the Rapamycin screen includes two biological replicates.
Using this criteria, several hundred peptides (corresponding to 148 and 85 proteins respectively, in the two biological replicates, Table 11) were determined to contain rapamycin-sensitive phosphorylation sites. […] Note that there are two biological replicate experiments for the rapamycin screen (“Table 11 Rapa Replicate 1,” and “Table 11 Rapa Replicate 2,” respectively) and one Ku-0063749 replicate (“Table 11 Ku”). Treatment for the light and heavy cells in each experiment is described in FIG. 1C. We observed a similar distribution for the phosphopeptides in the […] biological replicate experiment and found 85 proteins (Table 11) that carried rapamycin-sensitive phosphorylation sites.
The analysis identified 4,484 and 6,832 unique phosphorylation sites on 1,615 and 1,866 proteins from two biological replicate experiments, respectively, and achieved a high level of accuracy in quantitation (Table 5). […] A representative identification of the known rapamycin-sensitive phosphorylation sites on ribosomal protein S6 is shown in FIG. 1B.
TSC2−/− MEFs were used in the rapamycin screen due to constitutive hyperactivation of mTORC1 signaling in this cell line. Cells were grown in light ([^12C6^14N2]Lys, [^12C6^14N4]Arg) and heavy ([^13C6^15N2]Lys, [^13C6^15N4]Arg) DMEM (Cambridge Isotope Labs), respectively. Both light and heavy DMEM were supplemented with 10% dialyzed FBS (Invitrogen). Cells were serum-deprived for 17 hours and cells were cultured inheavy media were treated with 20 nM rapamycin for two hours. We performed two biological replicates of this experimental design with cross-labeling (swapping the labeled state of the rapamycin-treated cells).

[1] = downregulated phosphorylation, TSC2−/− MEFs, 20 nM rapamycin 2 h vs DMSO, second biological replicate

Compound: CO[C@H]1C[C@@H]2CC[C@@H](C)[C@@](O)(O2)C(=O)C(=O)N2CCCC[C@H]2C(=O)O[C@H]([C@H](C)C[C@@H]2CC[C@@H](O)[C@H](OC)C2)CC(=O)[C@H](C)/C=C(\C)[C@@H](O)[C@@H](OC)C(=O)[C@H](C)C[C@H](C)/C=C/C=C/C=C/1C [rapamycin]
- Log2 Area (H/L) Ratio (Ahctf1 phosphopeptide NGVSLFNS*PKTEQPSPVVHSFPHPELPEAFVGTPISNTSQR, SEQ ID NO: 1120, rapamycin screen): 1.0661
- Log2 Area (H/L) Ratio (Ahctf1 phosphopeptide NGVSLFNSPK@T*EQPSPVVHSFPHPELPEAFVGTPISNTSQR^, SEQ ID NO: 1119, rapamycin screen): 1.0661
- Log2 Area (H/L) Ratio (Ahctf1 phosphopeptide NGVSLFNSPK@TEQPSPVVHS*FPHPELPEAFVGTPISNTSQR^, SEQ ID NO: 1121, rapamycin screen): 1.0661
- Log2 Area (H/L) Ratio (Ahnak phosphopeptide S*NS*FSDERAEFSAPSTPTGTLEFAGGDAK@, SEQ ID NO: 1147, rapamycin screen): 1.0143
- Log2 Area (H/L) Ratio (Ahnak phosphopeptide S*NS*FSDEREFSAPSTPTGTLEFAGGDAK, SEQ ID NO: 1148, rapamycin screen): 1.0143
- Log2 Area (H/L) Ratio (Ahnak phosphopeptide S*NS*FSDEREFSAPSTPTGTLEFAGGDAK, SEQ ID NO: 1149, rapamycin screen): 1.0143
- Log2 Area (H/L) Ratio (Arhgap17 phosphopeptide LGEQGPEPGPT*PPQT*PT*PPST*PPLAK, SEQ ID NO: 1124, rapamycin screen): 1.0618
- Log2 Area (H/L) Ratio (Arid1a phosphopeptide GPS*PSPVGS*PASVAQSR^, SEQ ID NO: 1151, rapamycin screen): 1.0107
- Log2 Area (H/L) Ratio (Atxn2 phosphopeptide TS*PAGGTWSSVVSGVPR, SEQ ID NO: 1157, rapamycin screen): 1.0015
- Log2 Area (H/L) Ratio (Atxn2 phosphopeptide TS*PAGGTWSSVVSGVPR^, SEQ ID NO: 1156, rapamycin screen): 1.0015
- Log2 Area (H/L) Ratio (Azi1 phosphopeptide ANNAGASIYPTGPADPCPPASES*S*PEQWQSPEDKPQDIHSQGEAR, SEQ ID NO: 1138, rapamycin screen): 1.0268
- Log2 Area (H/L) Ratio (Dlg5 phosphopeptide SS*SHLDPAATPHSTLQGSSAGTPEHPSVIDPLMEQDEGPGTPPAK@, SEQ ID NO: 1129, rapamycin screen): 1.0498
- Log2 Area (H/L) Ratio (Eif4ebp1 phosphopeptide NS*PVAK@T*PPK@DLPAIPGVTSPTSDEPPM#QASQSQLPSSPEDK@, SEQ ID NO: 1143, rapamycin screen): 1.0227
- Log2 Area (H/L) Ratio (Eif4ebp1 phosphopeptide NS*PVAKT*PPKDLPAIPGVTSPT*SDEPPMQASQSQLPSS*PEDK, SEQ ID NO: 1150, rapamycin screen): 1.0129
- Log2 Area (H/L) Ratio (Eif4ebp2 phosphopeptide TVAISDAAQLPQDYCTT*PGGTLFSTT*PGGTRIIYDR, SEQ ID NO: 1137, rapamycin screen): 1.0271
- Log2 Area (H/L) Ratio (Eif4ebp2 phosphopeptide TVAISDAAQLPQDYCTT*PGGTLFSTT*PGGTR^IIYDR^, SEQ ID NO: 1136, rapamycin screen): 1.0271
- Log2 Area (H/L) Ratio (Erbb2ip phosphopeptide VGS*EHSLLDPPGK, SEQ ID NO: 1135, rapamycin screen): 1.0307
- Log2 Area (H/L) Ratio (Erf phosphopeptide FPPST*PSEVLS*PTEDPRS*PPACSSSSSSLFSAVVAR, SEQ ID NO: 1154, rapamycin screen): 1.0039
- Log2 Area (H/L) Ratio (Fam129a phosphopeptide HNLFEDNM#ALPSESVSS*LTDLK, SEQ ID NO: 1142, rapamycin screen): 1.0232
- Log2 Area (H/L) Ratio (Fam129a phosphopeptide HNLFEDNMALPSES*VSSLTDLK@TAMGS*NQAS*PAR^R^, SEQ ID NO: 1152, rapamycin screen): 1.0048
- Log2 Area (H/L) Ratio (Fam129a phosphopeptide HNLFEDNMALPSESVSSLT*DLK@TAMGS*NQAS*PAR^R^, SEQ ID NO: 1153, rapamycin screen): 1.0048
- Log2 Area (H/L) Ratio (Hells phosphopeptide S*INYSELDQFPSELEK, SEQ ID NO: 1132, rapamycin screen): 1.0332
- Log2 Area (H/L) Ratio (Hells phosphopeptide S*INYSELDQFPSELEK@, SEQ ID NO: 1133, rapamycin screen): 1.0332
- Log2 Area (H/L) Ratio (Hells phosphopeptide S*INYSELDQFPSELEK@, SEQ ID NO: 1134, rapamycin screen): 1.0332
- Log2 Area (H/L) Ratio (Ncaph2 phosphopeptide NGS*PVPVPDIS*QEPDGPALSGGEEDAEDGAEPLEVALEPAEPR^, SEQ ID NO: 1127, rapamycin screen): 1.0598
- Log2 Area (H/L) Ratio (Ncaph2 phosphopeptide NGS*PVPVPDISQEPDGPALS*GGEEDAEDGAEPLEVALEPAEPR, SEQ ID NO: 1126, rapamycin screen): 1.0598
- Log2 Area (H/L) Ratio (Ncaph2 phosphopeptide NGS*PVPVPDISQEPDGPALS*GGEEDAEDGAEPLEVALEPAEPR^, SEQ ID NO: 1125, rapamycin screen): 1.0598
- Log2 Area (H/L) Ratio (Pbx1 phosphopeptide TAVTATNVSAHGSQANS*PSTPNSAGGY*PSPCYQPDR^R^, SEQ ID NO: 1128, rapamycin screen): 1.054
- Log2 Area (H/L) Ratio (Pds5b phosphopeptide AES*PETSAVESTQST*PQK, SEQ ID NO: 1141, rapamycin screen): 1.0246
- Log2 Area (H/L) Ratio (Pds5b phosphopeptide AES*PETSAVESTQST*PQK@, SEQ ID NO: 1139, rapamycin screen): 1.0246
- Log2 Area (H/L) Ratio (Pds5b phosphopeptide AES*PETSAVESTQST*PQK@, SEQ ID NO: 1140, rapamycin screen): 1.0246
- Log2 Area (H/L) Ratio (Phldb1 phosphopeptide WAAHGTS*PEDFSLTLGAR^, SEQ ID NO: 1118, rapamycin screen): 1.068
- Log2 Area (H/L) Ratio (Ranbp10 phosphopeptide SQDS*YPGS*PSLSPR, SEQ ID NO: 1161, rapamycin screen): 1.0009
- Log2 Area (H/L) Ratio (Ranbp10 phosphopeptide SQDSYPGS*PSLS*PR, SEQ ID NO: 1158, rapamycin screen): 1.0009
- Log2 Area (H/L) Ratio (Ranbp10 phosphopeptide SQDSYPGS*PSLS*PR^, SEQ ID NO: 1159, rapamycin screen): 1.0009
- Log2 Area (H/L) Ratio (Ranbp10 phosphopeptide SQDSYPGS*PSLS*PR^, SEQ ID NO: 1160, rapamycin screen): 1.0009
- Log2 Area (H/L) Ratio (Ranbp10 phosphopeptide SQDSYPGS*PSLS*PR^, SEQ ID NO: 1162, rapamycin screen): 1.0009
- Log2 Area (H/L) Ratio (Rb1 phosphopeptide DGEGPDNLEPACPLSLPLQGNHTAADMYLS*PLRS*PK, SEQ ID NO: 1123, rapamycin screen): 1.0618
- Log2 Area (H/L) Ratio (Rb1 phosphopeptide DGEGPDNLEPACPLSLPLQGNHTAADMYLS*PLR^S*PK@, SEQ ID NO: 1122, rapamycin screen): 1.0618
- Log2 Area (H/L) Ratio (Samhd1 phosphopeptide CDGS*PR^T*PPS*TPPATANLSADDDFQNTDLR^, SEQ ID NO: 1155, rapamycin screen): 1.0027
- Log2 Area (H/L) Ratio (Shroom2 phosphopeptide SRS*S*PSTDHYSQEVPVEPNR, SEQ ID NO: 1144, rapamycin screen): 1.0176
- Log2 Area (H/L) Ratio (Shroom2 phosphopeptide SRS*S*PSTDHYSQEVPVEPNR, SEQ ID NO: 1145, rapamycin screen): 1.0176
- Log2 Area (H/L) Ratio (Shroom2 phosphopeptide SR^S*S*PSTDHYSQEVPVEPNR^, SEQ ID NO: 1146, rapamycin screen): 1.0176
- Log2 Area (H/L) Ratio (Tox4 phosphopeptide LSTTPS*PTNS*LHEDGVDDFRR, SEQ ID NO: 1130, rapamycin screen): 1.0342
- Log2 Area (H/L) Ratio (Tox4 phosphopeptide LSTTPS*PTNS*LHEDGVDDFRR, SEQ ID NO: 1164, rapamycin screen): 1.0005
- Log2 Area (H/L) Ratio (Tox4 phosphopeptide LSTTPS*PTNS*LHEDGVDDFR^R^, SEQ ID NO: 1131, rapamycin screen): 1.0342
- Log2 Area (H/L) Ratio (Tox4 phosphopeptide LSTTPS*PTNS*LHEDGVDDFR^R^, SEQ ID NO: 1163, rapamycin screen): 1.0005
- Median (treated/ctrl) fold-change of phosphopeptide Eif4ebp1 S64, T69 [1]: 2.8 fold
- Median (treated/ctrl) fold-change of phosphopeptide Eif4ebp2 S65, T70 [1]: 39.1 fold
- Median (treated/ctrl) fold-change of phosphopeptide Eif4ebp2 T37, T46 [1]: 2.3 fold
- Median (treated/ctrl) fold-change of phosphopeptide LSSLRAS*TS*KSES*S*QK, RPS6 S240, S242, S246, S247 [1]: 4.5 fold
- Median (treated/ctrl) fold-change of phosphopeptide MNILSS*QS*PLHPSTLNAVIHR, Grb10 S421, S423 (isoform 3; S501/S503 in isoform 1) [1]: more than 27 fold and 27.3 fold
- Median (treated/ctrl) fold-change of phosphopeptide RLS*S*LRASTSK, RPS6 S235, S236 [1]: 30.5 fold
- Median (treated/ctrl) fold-change of phosphopeptide Rps6kb1 S441, T444, S447 [1]: 2.8 fold
- Median (treated/ctrl) fold-change of phosphopeptide S*LPVSVPVWAFK, Akt1s1 S184 [1]: 2.2 fold
- Median (treated/ctrl) fold-change of phosphopeptide SFS*KEVEER, Eif4g1 S1189 [1]: 2.8 fold
- Median (treated/ctrl) fold-change of phosphopeptide SRT*GS*ESSQTGASATSGR, Eif4b T420, S422 [1]: 4.3 fold
- Median (treated/ctrl) fold-change of phosphopeptide TGS*ESS*QTGASATSGR, Eif4b S422, S425 [1]: 4.6 fold
- Median (treated/ctrl) fold-change of phosphopeptide TTS*FAESCKPVQQPSAFGSMK, Gsk3β S9 [1]: approximately 3.3 fold and 3.3 fold
- Median (treated/ctrl) fold-change of phosphopeptide ULK1 S747, S757, T763 [1]: 4 fold and 4.1 fold
- Median (treated/ctrl) fold-change of triply phosphorylated Grb10 peptide T76, S96, S104 [1]: 5.4 fold
- decrease of 4EBP1 T36/T45 phosphorylation after rapamycin treatment (rapamycin screen): 20%
